From patent US6750224B1, “Antibacterial optically pure benzoquinolizine carboxylic acids, processes, compositions and methods of treatment” (priority 1999, dated 2004) come the findings set out here.

Data set [1] is described as follows: Equilibrium moisture content determination at several relative humidities. Particulars: Karl Fischer. The format is physicochemical. The text has this:
Silica (anhydrous) and three saturated solutions of electrolytes prepared by dissolving the respective salts in water were each introduced into different desiccators to control the inner relative humidity to a specific value as represented in the following Table 7. Then, the equilibrium moisture contents of S-(−)-9-fluoro-6,7-dihydro-8-(4-hydroxypiperidin-1-yl)-5-methyl-1-oxo-1H,5H-benzo[i,j]quinolizine-2-carboxylic acid anhydrate and S-(−)-9-fluoro-6,7-dihydro-8-(4-hydroxypiperidin-1-yl)-5-methyl-1-oxo-1H,5H-benzo[i,j]quinolizine-2-carboxylic acid 0.2 hydrate prepared in Examples 1 and 2 respectively were determined at several relative humidities.
Specifically, 1 g of the sample was spread on a pre-weighed petridish and the total weight was accurately measured, then both the samples were placed in each desiccator of Table 8 The dessicators were allowed to stand at normal temperature for at least 3 days and the weight was measured agingly over this period. The weight changes were tabulated. At the end of 3 days all samples were taken to be weighed. The moisture content of each sample was determined by Karl Fischer analysis. Equilibrium moisture content at each relative humidity is represented in FIG. 1 (anhydrate) and FIG. 2 (0.2 hydrate).

The nature of data set [2]: Chemical stability under heating (HPLC). The format is physicochemical. On the procedure:
The anhydride and hydrates were each introduced into a glass vial and maintained at 70° C. Thus the thermal decomposition with elapsed time was analysed by HPLC and the results thus obtained are described in Table 8

The subject of the next data set is MRSA STA-4. Briefly: In-vitro antimicrobial activity test (MIC, NCCLS). The format is cell-based, Staphylococcus aureus. The text has this:
(§1) The test method was in accordance with the standard NCCLS protocol.

Data set [3] has as its system Mupirocin-resistant Staph STA-34. Briefly: In-vitro antimicrobial activity test (MIC, NCCLS). The data set is classed as cell-based, Staphylococcus aureus.
From the text: as §1

The next data set deals with MRSE STE-22. Briefly: In-vitro antimicrobial activity test (MIC, NCCLS). The data set is classed as cell-based, Staphylococcus epidermidis.
From the text: as §1

Another data set has as its system Corynebacterium jeikeium. Briefly: In-vitro antimicrobial activity test (MIC, NCCLS). The format is cell-based.
From the text: as §1

For data set [4], the system named is Enterococcus faecalis ATCC 29212. Briefly: In-vitro antimicrobial activity test (MIC, NCCLS). The data set is classed as cell-based.
From the text: as §1

For the next data set, the system named is Enterococcus faecium. Briefly: In-vitro antimicrobial activity test (MIC, NCCLS). The format is cell-based.
From the text: as §1

Another data set has as its system Propioni bacterium acnes. Briefly: In-vitro antimicrobial activity test (MIC, NCCLS). The format is cell-based.
From the text: as §1

The subject of data set [5] is Staphylococcus aureus ATCC 25923. Briefly: In-vitro antimicrobial activity test (MIC, NCCLS). The data set is classed as cell-based.
From the text: as §1

Data set [6] relates to Streptococcus pneumoniae ATCC 6303. Briefly: In-vitro antimicrobial activity test (MIC, NCCLS). The format is cell-based.
From the text: as §1

The next data set concerns Streptococcus pyogenes. Briefly: In-vitro antimicrobial activity test (MIC, NCCLS). The data set is classed as cell-based.
From the text: as §1

For data set [7], the system named is Viridans group Streptococci. Briefly: In-vitro antimicrobial activity test (MIC, NCCLS). The format is cell-based.
From the text: as §1

In data set [8] the test system is S.aureus strain bearing Nor A efflux pump. The format is cell-based. Particulars: Nor A efflux pump strain vs strain devoid of efflux pump. Here is the method:
Using this set of MIC values, % loss in potency due to efflux was calculated for each of the fluoroquinolone in Table 5

≈ marks a conversion by molar mass, not a printed value. Where two headings read alike, the source gives them in different places. Bounds are passed on as bounds.

For the compound `C[C@H]1CCc2c(N3CCC(O)CC3)c(F)cc3c(=O)c(C(=O)O)cn1c23` [Example 1, S-(−)-9-fluoro-6,7-dihydro-8-(4-hydroxypiperidin-1-yl)-5-methyl-1-oxo-1H,5H-benzo[i,j]quinolizine-2-carboxylic acid anhydrate], the equilibrium moisture content result is given as “around 0.1%” in [1] (relative humidity 20% to 58%) and “around 1%” in data set [1] (relative humidity 75% to 95%). The “Thermal stability with elapsed time at 70° C.” value (“Thermal stability” below) was 98.7% in data set [2] (1 week, HPLC); 98.6% in data set [2] (2 week, HPLC); 98.9% in [2] (Initial, HPLC).

For orientation: MIC means the smallest concentration in the dilution series that meets the test's criterion for growth inhibition. Read a low MIC as a more susceptible organism. Turning to `C/C(=C\C(=O)OCCCCCCCCC(=O)O)C[C@@H]1OC[C@H](C[C@@H]2O[C@H]2[C@@H](C)[C@H](C)O)[C@@H](O)[C@H]1O` [Mupirocin], the MIC in the data set with MRSA STA-4 is 0.4 µg/mL (≈ 0.799 µM); in [3], > 400 µg/mL; in the data set on MRSE STE-22, 0.2 µg/mL (≈ 0.399 µM); in the data set on Corynebacterium jeikeium, > 12.5 µg/mL; in data set [4] it was > 12.5 µg/mL; in the data set on Enterococcus faecium, > 0.8 µg/mL. In addition, the minimal inhibitory concentration (MIC) against Propioni bacterium acnes is > 1000 µg/mL; in data set [5] it was 0.4 µg/mL (≈ 0.799 µM); in data set [6], 0.2 µg/mL (≈ 0.399 µM); in the data set with Streptococcus pyogenes, 0.025 µg/mL (≈ 0.0499 µM); in data set [7] it was 0.2 µg/mL (≈ 0.399 µM).

For the compound `COc1c(N2CCNC(C)C2)c(F)cc2c(=O)c(C(=O)O)cn(C3CC3)c12` (stereo not drawn) [Gatifloxacin], the “% loss in potency for S. aureus bearing Efflux pump” value (“% loss in potency” below) in [8] is on record as 75%.

For the compound `C[C@H]1CCc2c(N3CCC(O)CC3)c(F)cc3c(=O)c(C(=O)O)cn1c23.O` [Example 4, S-(−)-9-fluoro-6,7-dihydro-8-(4-hydroxypiperidin-1-yl)-5-methyl-1-oxo-1H,5H-benzo[i,j]quinolizine-2-carboxylic acid 0.75 hydrate], in [2], the “Thermal stability” value stood at 98.3% and the “chemical stability at 70° C., in words” value is recorded as “decompose with time”.

On to `CO/N=C1\CN(c2nc3c(cc2F)c(=O)c(C(=O)O)cn3C2CC2)CC1CN` (stereo not drawn) [Gemifloxacin], for which, in [8], the “% loss in potency” value is reported as 75%.

Take `C[C@H]1CCc2c(N3CCC(O)CC3)c(F)cc3c(=O)c(C(=O)O)cn1c23.C[C@H]1CCc2c(N3CCC(O)CC3)c(F)cc3c(=O)c(C(=O)O)cn1c23.O` [Example 3, S-(−)-9-fluoro-6,7-dihydro-8-(4-hydroxypiperidin-1-yl)-5-methyl-1-oxo-1H,5H-benzo[i,j]quinolizine-2-carboxylic acid 0.5 hydrate]: in data set [2], the “Thermal stability” value is listed as 98.1% and the “chemical stability at 70° C., in words” value was “decompose with time”.

Consider `CCn1cc(C(=O)O)c(=O)c2cc(F)c(N3CCNCC3)cc21` [Norfloxacin], for which the “% loss in potency” value in data set [8] is 97%.

As to `NC1CCN(c2c(F)cc3c(=O)c(C(=O)O)cn(C4CC4)c3c2Cl)C1` (stereo not drawn) [Clinafloxacin], the “% loss in potency” value in [8] turned out to be 87.5%.

Regarding `C[C@H]1CCc2c(N3CCC(O)CC3)c(F)cc3c(=O)c(C(=O)O)cn1c23.O` [Example 2, S-(−)-9-fluoro-6,7-dihydro-8-(4-hydroxypiperidin-1-yl)-5-methyl-1-oxo-1H,5H-benzo[i,j]quinolizine-2-carboxylic acid 0.2 hydrate], the equilibrium moisture content result in data set [1] (relative humidity 20% to 95%) is listed as “around 1%”. Besides, in [2], the “Thermal stability” value was found to be 98.7% and the “chemical stability at 70° C., in words” value is listed as “same degree of chemical stability as the anhydrate”.
